Columns and labels:
Mpn wild type cells = test: Uptake and metabolism of tritium labelled natural nucleoside and nucleobases in the presence of analogs; assay type: cell-based, Mycoplasma pneumoniae
Protocol: The cells were harvested and analyzed essentially as described. Analogs used were dipyridamole, 6-thioguanine (6-TG), trifluorothymidine (TFT), gemcitabine (dFdC) and 5-fluorodeoxyuridine (5FdU). Total uptake is the percent of radioactivity recovered in the cells divided by total radioactivity added to the growth medium. Percent of acid insoluble (radioactivity found in DNA and RNA) was also calculated. These experiments were done more than three times and data are given as mean ± SD.

Mpn TK = test: TK activity in total protein extracts of Mpn cultured with TFT; assay type: cell-based, Mycoplasma pneumoniae; settings: 10 μM TFT, 70 hours culture
Protocol: (§1) Total proteins were extracted from these cultures and used to determine the TK and TS activity.
(§2) Mpn wild type cells were cultured in the presence of [^3H]-dT and different concentrations of TFT. The cells were incubated at 37°C for 70 hours and harvested. The total uptake and incorporation of [^3H]-dT were analysed, and TK and TS activity were determined in total protein extracts.
(§3) To determine the effect of TFT on TK and TS activity, Mpn wild type cells were cultured in 75 cm^2 tissue culture flasks containing 50 ml medium, inoculated with 3 ml of stock culture (1 × 10^9 cfu/ml), in the presence of [^3H]-dT (1 μCi ml^-1) and different concentrations of TFT. After 70 hours at 37°C the cultures were harvested and divided to two aliquots, one was used to determine total uptake/metabolism of radiolabeled dT and total proteins were extracted from the other aliquot and used to measure TK and TS activity using [^3H]-dT and [5-^3H]-dUMP as substrates.

Mpn TS = test: TS activity in total protein extracts of Mpn cultured with TFT; assay type: cell-based; settings: various concentrations of TFT, 70 hours culture
Protocol: as §1, §2, §3

Ureaplasma TK [1] = target: T1, Ureaplasma TK (Ureaplasma parvum serovar 3, UniProt Q9PPP5); test: TFT phosphorylation kinetics, phosphoryl transfer assay; assay type: biochemical; settings: 100 μM [γ-32P]-ATP
T1 construct: made in house
T1 sequence (Q9PPP5 1-223): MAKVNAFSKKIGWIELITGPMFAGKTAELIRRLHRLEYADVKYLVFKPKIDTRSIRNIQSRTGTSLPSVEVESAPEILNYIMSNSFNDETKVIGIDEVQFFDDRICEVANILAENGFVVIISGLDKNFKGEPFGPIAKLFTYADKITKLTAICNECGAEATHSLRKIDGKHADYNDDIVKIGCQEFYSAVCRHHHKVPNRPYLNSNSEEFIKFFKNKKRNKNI
Protocol: (§4) Figure 3 Substrate saturation curves of TFT with human TK2 (A), human TK1 (B), and Ureaplasma TK (C). Kinetic assays with TFT were performed by using [γ-^32P]-ATP as the labelled substrate at fixed concentration and variable concentrations of TFT. The reaction products were separated by thin layer chromatography, and quantified as described in the experimental procedures.
(§5) Kinetic parameters for TFT were determined by using the phosphoryl transfer assays as previously described. Briefly, each reaction was performed in a total volume of 20 μl containing 50 mM Tris/HCl, pH 7.5, 0.5 mg/ml BSA, 5 mM DTT, 2 mM MgCl2, 15 mM NaF, variable concentrations of TFT, 0.1 mM [γ-^32P]-ATP, and 50 ng purified enzyme at 37°C for 20 min, and stopped by heating at 70°C for 2 min. After brief centrifugation, 1 μl supernatant was spotted onto a TLC plate (PEI-cellulose, Merck) and dried. The TLC plates were developed in isobutyric acid/ammonia/H2O (66:1:33). The reaction products were visualized and quantified by phosphoimaging analysis (Quantity One, Bio-Rad).

human TK1 [2] = target: T2, human TK1 (Homo sapiens, UniProt P04183); test: as above; assay type: biochemical; settings: 100 μM [γ-32P]-ATP
T2 construct: made in house
T2 sequence (P04183 1-234): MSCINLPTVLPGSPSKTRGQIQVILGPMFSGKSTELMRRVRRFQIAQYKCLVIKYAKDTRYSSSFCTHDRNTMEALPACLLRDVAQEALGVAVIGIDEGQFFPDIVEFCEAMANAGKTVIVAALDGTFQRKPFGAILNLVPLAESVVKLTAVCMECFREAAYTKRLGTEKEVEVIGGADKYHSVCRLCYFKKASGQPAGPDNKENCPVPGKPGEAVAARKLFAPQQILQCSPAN
Protocol: as §4, §5

human TK2 [3] = target: T3, human TK2 (Homo sapiens, UniProt O00142); test: as above; assay type: biochemical; settings: 100 μM [γ-32P]-ATP
T3 construct: made in house
T3 sequence (O00142 34-265): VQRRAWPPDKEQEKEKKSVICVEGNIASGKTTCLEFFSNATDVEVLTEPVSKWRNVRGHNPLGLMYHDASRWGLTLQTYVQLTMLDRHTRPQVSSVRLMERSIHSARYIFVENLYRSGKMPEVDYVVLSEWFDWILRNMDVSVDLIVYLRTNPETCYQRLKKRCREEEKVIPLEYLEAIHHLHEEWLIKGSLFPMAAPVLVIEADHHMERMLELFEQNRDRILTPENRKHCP
Protocol: as §4, §5

Ureaplasma TK [4] = target: T1, Ureaplasma TK; test: Thymidine kinase inhibition with [3H]-dT as substrate; assay type: biochemical; settings: 10 μM tritium labelled thymidine
Protocol: (§6) Thymidine kinase assay was performed using tritium labelled thymidine ([^3H]-dT) as substrate and various concentrations of the inhibitors essentially as previously described to determine the IC50 values of TFT and 5FdU.

human TK1 [5] = target: T2, human TK1; test: as above; assay type: biochemical; settings: 10 μM tritium labelled thymidine
Protocol: as §6

human TK2 [6] = target: T3, human TK2; test: as above; assay type: biochemical; settings: 10 μM tritium labelled thymidine
Protocol: as §6

[7] = 10 μM analog, 70 hours, 37°C, radioactivity in cells / total added
[8] = 10 μM analog, 70 hours, acid insoluble fraction / total in cells

O=c1[nH]c(=O)n([C@H]2C[C@H](O)[C@@H](CO)O2)cc1C(F)(F)F [Trifluorothymidine (TFT), Trifluorothymidine]
Stimulation of [3H]-dT uptake (Mpn wild type cells; 10 μM analog versus control): 2 fold
[3H]-Ade Total uptake (Mpn wild type cells; [7]): 0.43±0.01%
[3H]-Gua Total uptake (Mpn wild type cells; [7]): 0.19±0.02%
[3H]-Hx Total uptake (Mpn wild type cells; [7]): 0.011± 0.001%
[3H]-Ura Total uptake (Mpn wild type cells; [7]): 0.11±0.002%
[3H]-dT Total uptake (Mpn wild type cells; [7]): 18.2±0.6%
[3H]-Ade Incorporation (Mpn wild type cells; [8]): 48±2%
[3H]-Gua Incorporation (Mpn wild type cells; [8]): 85±4%
[3H]-Hx Incorporation (Mpn wild type cells; [8]): 67±1%
[3H]-Ura Incorporation (Mpn wild type cells; [8]): 27±0.2%
[3H]-dT Incorporation (Mpn wild type cells; [8]): 97.4±0.5%
TK activity relative to controls (Mpn TK): ~ 3 times
TS activity (in words) (Mpn TS): unchanged
kcat (Ureaplasma TK [1]): 0.055 ± 0.008 s⁻¹
Km (Ureaplasma TK [1]; TFT 1 – 100 μM): 9.9 ± 5.2 µM
kcat (human TK1 [2]): 0.043 ± 0.003 s⁻¹
Km (human TK1 [2]; TFT 1 – 100 μM): 5.9 ± 1.7 µM
kcat (human TK2 [3]): 0.026 ± 0.003 s⁻¹
Km (human TK2 [3]; TFT 1 – 100 μM): 8.8 ± 3.8 µM
IC50 (Ureaplasma TK [4]): 12 ± 4.2 µM
IC50 (human TK1 [5]): 9.7 ± 3.2 µM
IC50 (human TK2 [6]): 80 ± 5.6 µM

— article PMC3750255, “Inhibition of Mycoplasma pneumoniae growth by FDA-approved anticancer and antiviral nucleoside and nucleobase analogs” (BMC Microbiology, 2013)
